Reference: patent publication US6544962B1, “Methods for treating cellular proliferative disorders” (Matrix Pharmaceutical, Inc., priority 2000, dated 2003)

Assays:
A549 = experiment: MTT cell growth inhibition assay, A549 lung carcinoma cells; assay type: cell-based, human; conditions: 72 hours exposure
Protocol: (§1) The antiproliferative activity of FMdC in combination with cisplatin on growth inhibition in human carcinoma cell lines in vitro was studied using the following method.
(§2) Two lung carcinoma cell lines, A549 and Calu-6, (available through ATCC, Rockville, Md.), were cultured in F12K medium with 10% fetal bovine serum at an atmosphere of 5% CO2 at 37° C. All cells were exposed to both FMdC and cisplatin in different concentrations for 72 hours.
(§3) Cell growth inhibition was determined by measuring the metabolic activity of cells using the MTT (tetrazolium salt) assay. For the MTT assays, the cells were seeded at 4×10^3 in 100 μL per well in a 96-well microtiter culture plate. The concentration of FMdC ranged from 10 nM to 100 μM and the concentration of cisplatin ranged from 1 μM to 10 mM. At the end of the treatment, tetrazolium salt (MTT) was added to each well and then solubilized. The microtiter plate was then measured (O.D. at 570 nm) using an ELISA plate reader. The 50% inhibitory concentrations (IC50) values of FMdC and cisplatin as single agents and in combination were determined.

Calu-6 = experiment: MTT cell growth inhibition assay, Calu-6 lung carcinoma cells; assay type: cell-based, human; conditions: Calu-6 cells, 72 hours exposure
Protocol: as §1, §2, §3

[1] = test system: A549 Human NSCLC Xenografts; experiment: Anti-tumor activity, A549 human NSCLC xenografts, multiple dose; assay type: in vivo, nu/nu mice; conditions: i.p.; for TVQT (days) (M ± SE), tumor volume quadrupling time: FMdC or gemcitabine 20 mg/kg Day 0, 3, 7, 10, CDDP 4 mg/kg Day 0, 7, FMdC 15 minutes prior to cisplatin; for TGD (days) (M ± SE), tumor growth delay: FMdC or gemcitabine 20 mg/kg Day 0, 3, 7, 10, CDDP 4 mg/kg Day 0, 7, difference of TVQT vs untreated control
From the text: This example evaluated the effect of FMdC in combination with cisplatin in a human non-small-cell lung cancer (NSCLC) xenograft model. This combination was compared to the administration of the combination of gemcitabine with cisplatin. Gemcitabine (Gemzar®, Eli Lilly and Company) is 2′-deoxy-2′,2′-difluorocytidine (dFdC).
(§4) Xenogeneic NSCLC tumors of A549 cells (available through ATCC, Rockville, Md.) were induced by intradermal injection of approximately 5×10^6 cells into the flanks of female nu/nu mice. Two to three weeks after tumor cell inoculation, when the tumors were approximately 10 mm^3 in size, treatment with FMdC, gemcitabine or cisplatin solution was administered intraperitoneally (i.p.) in a volume of approximately 10 μL per gram of mouse body weight. Six to eight animals were used per treatment group.
(§5) The injectable solutions were prepared as follows: Lyophilized FMdC was reconstituted with sterile saline to a concentration of 2 or 20 mg/mL; gemcitabine was reconstituted with sterile saline to a concentration of 2 mg/mL; and cisplatin solution was prepared from lyophilized cisplatin (Cisplatin for Injection, David Bull Laboratories) by reconstitution with sterile water to a concentration of 0.4 or 0.6 mg/mL.
For this multiple treatment regimens, FMdC or gemcitabine was administered twice a week for two weeks at 20 mg/kg and cisplatin was administered once a week for two weeks at 4 mg/kg. FMdC was administered by injection 15 minutes prior to the administration of cisplatin.
(§6) Tumor growth and animal body weight were determined twice weekly for up to 30 days. Tumor volume quadrupling time (TVQT) was used as the study endpoint. Tumor growth delay (TGD) is the difference between TVQTs of a treated group and untreated control.

[2] = test system: A549 Human NSCLC Xenografts; experiment: Influence of time interval between FMdC and CDDP, A549 human NSCLC xenografts, single dose; assay type: in vivo, nu/nu mice; conditions: single agent, single dose i.p.; FMdC 200 mg/kg, CDDP 6 mg/kg
From the text: (§7) This example evaluated the effect of FMdC in combination with cisplatin in two human non-small-cell lung cancer (NSCLC) xenograft models. This example examined the influence of the time interval between FMdC and cisplatin administration.
as §4, with “A549 cells or Calu-6” for “A549”, “FMdC and/or” for “FMdC, gemcitabine or”
as §5, with “mg/mL;” for “mg/mL; gemcitabine”
as §6

[3] = test system: Calu-6 Human NSCLC Xenografts; experiment: Influence of time interval between FMdC and CDDP, Calu-6 human NSCLC xenografts, single dose; assay type: in vivo, nu/nu mice; conditions: single agent, single dose i.p.; FMdC 200 mg/kg, CDDP 6 mg/kg
From the text: as §7
as §4, with “A549 cells or Calu-6” for “A549”, “FMdC and/or” for “FMdC, gemcitabine or”
as §5, with “mg/mL;” for “mg/mL; gemcitabine”
as §6

SMILES	Cell growth inhibition / cell death (MTT assay) (A549)	Cell growth inhibition / cell death (MTT assay) (Calu-6)	TVQT (days) (M ± SE), tumor volume quadrupling time [1]	TGD (days) (M ± SE), tumor growth delay [1]	TGD (days) (M ± SE) [2]	TVQT (days) (M ± SE) [2]	TGD (days) (M ± SE) [3]	TVQT (days) (M ± SE) [3]
N.N.[Cl][Pt][Cl] [CDDP, cis-diamminedichloroplatinum]	not effective	not effective	18.1 ± 0.9 days	1.3 ± 1.5 days	1.9 ± 2.0 days	16.1 ± 1.8 days	8.8 ± 1.6 days	18.1 ± 1.5 days
Nc1ccn([C@@H]2O[C@H](CO)[C@@H](O)/C2=C\F)c(=O)n1 [FMdC, (E)-2′-deoxy-2′-(fluoromethylene)cytidine]	not effective	not effective	19.8 ± 1.1 days	3.0 ± 1.6 days	3.6 ± 1.3 days	17.8 ± 1.0 days	2.0 ± 0.6 days	11.3 ± 0.4 days
Nc1ccn([C@@H]2O[C@H](CO)[C@@H](O)C2(F)F)c(=O)n1 [Gemcitabine, 2′-deoxy-2′,2′-difluorocytidine]	–	–	18.7 ± 1.0 days	1.9 ± 1.6 days	–	–	–	–
